The target in experiment [1] is hPIV-3 CI002 HN (neuraminidase function) (UniProt P08492, species not given/STRAIN_CI002). Nature of the experiment: Neuraminidase inhibition assay (MUN), hPIV-3 CI002. Particulars: pH 4.6. Format: biochemical, hPIV-3 (strain CI002, clinical isolate).
For experiment [2], the target named is hPIV-1 C35 HN (neuraminidase function) (Human parainfluenza 1 virus, UniProt P16071). Nature of the experiment: Neuraminidase inhibition assay (MUN), hPIV-1 C35. Format: biochemical, hPIV-1 (strain C-35).
For experiment [3], the system named is hPIV-3 C243. Nature of the experiment: In situ ELISA virus growth inhibition, hPIV-3 C243. Format: cell-based, hPIV-3 (strain C243) in LLC-MK2 cells (Rhesus monkey kidney). Particulars: read-out: Viral Growth IC50.
Experiment [4] relates to hPIV-3 CI002. Nature of the experiment: In situ ELISA virus growth inhibition, hPIV-3 CI002. Particulars: Human respirovirus 3, in Macaca mulatta, LLC-MK2 cells, 36-40 h, read-out: Viral Growth IC50 (converted). Format: cell-based.
The target of experiment [5] is hPIV-3 C243 HN (neuraminidase function) (UniProt P08492, species not given/STRAIN_C243). Nature of the experiment: Neuraminidase inhibition assay (MUN), hPIV-3 C243. It counts as biochemical, hPIV-3 (strain C-243). The settings on record: pH 4.6.
Experiment [6] concerns the target hPIV-3 C243 HN (haemagglutination function) (UniProt P08492, species not given/STRAIN_C243). Nature of the experiment: Haemagglutination inhibition assay, hPIV-3 C243. The settings on record: 1% human red blood cells. It counts as biochemical, hPIV-3 (strain C-243).
The target in experiment [7] is hPIV-3 CI002 HN (haemagglutination function) (UniProt P08492, species not given/STRAIN_CI002). Nature of the experiment: Haemagglutination inhibition assay, hPIV-3 CI002. It counts as biochemical, hPIV-3 (strain CI002, clinical isolate). The settings on record: 1% human red blood cells.
The target in experiment [8] is hPIV-1 C35 HN (haemagglutination function) (Human parainfluenza 1 virus, UniProt P16071). Nature of the experiment: Haemagglutination inhibition assay, hPIV-1 C35. It counts as biochemical, hPIV-1 (strain C-35).
The mark [9] stands for this setting: Human respirovirus 3, in Macaca mulatta, hPIV-3 C243, LLC-MK2 cells, in situ ELISA, 36-40 h.
[10] abbreviates: Human respirovirus 3, LLC-MK2, in Macaca mulatta.

Where two headings read alike, the source gives them in different places.

Experimental findings from patent US12590092B2, “Antiviral agents and uses thereof” (GRIFFITH UNIVERSITY, priority 2021, dated 2026) are described below.

Sequence of hPIV-3 C243 HN (haemagglutination function) (P08492 whole entry, change not shown): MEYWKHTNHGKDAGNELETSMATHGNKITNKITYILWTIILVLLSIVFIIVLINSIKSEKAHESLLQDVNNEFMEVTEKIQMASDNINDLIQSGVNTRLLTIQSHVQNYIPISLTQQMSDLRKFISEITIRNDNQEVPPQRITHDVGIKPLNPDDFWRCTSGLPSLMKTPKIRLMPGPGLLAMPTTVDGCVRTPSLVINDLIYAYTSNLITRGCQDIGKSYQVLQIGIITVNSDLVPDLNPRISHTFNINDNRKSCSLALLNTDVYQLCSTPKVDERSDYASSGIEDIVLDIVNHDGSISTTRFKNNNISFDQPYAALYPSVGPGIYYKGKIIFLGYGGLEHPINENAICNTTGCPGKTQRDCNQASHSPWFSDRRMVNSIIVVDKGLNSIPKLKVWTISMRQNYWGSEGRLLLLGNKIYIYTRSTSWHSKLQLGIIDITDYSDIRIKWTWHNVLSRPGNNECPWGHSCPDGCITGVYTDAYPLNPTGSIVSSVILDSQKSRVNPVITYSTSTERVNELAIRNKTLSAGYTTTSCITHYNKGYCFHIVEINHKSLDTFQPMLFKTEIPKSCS
Sequence of hPIV-3 CI002 HN (haemagglutination function) (P08492 whole entry, change not shown): as above
Sequence of hPIV-3 CI002 HN (neuraminidase function) (P08492 whole entry, change not shown): as above
Sequence of hPIV-3 C243 HN (neuraminidase function) (P08492 whole entry, change not shown): as above
Sequence of hPIV-1 C35 HN (haemagglutination function) (P16071 whole entry): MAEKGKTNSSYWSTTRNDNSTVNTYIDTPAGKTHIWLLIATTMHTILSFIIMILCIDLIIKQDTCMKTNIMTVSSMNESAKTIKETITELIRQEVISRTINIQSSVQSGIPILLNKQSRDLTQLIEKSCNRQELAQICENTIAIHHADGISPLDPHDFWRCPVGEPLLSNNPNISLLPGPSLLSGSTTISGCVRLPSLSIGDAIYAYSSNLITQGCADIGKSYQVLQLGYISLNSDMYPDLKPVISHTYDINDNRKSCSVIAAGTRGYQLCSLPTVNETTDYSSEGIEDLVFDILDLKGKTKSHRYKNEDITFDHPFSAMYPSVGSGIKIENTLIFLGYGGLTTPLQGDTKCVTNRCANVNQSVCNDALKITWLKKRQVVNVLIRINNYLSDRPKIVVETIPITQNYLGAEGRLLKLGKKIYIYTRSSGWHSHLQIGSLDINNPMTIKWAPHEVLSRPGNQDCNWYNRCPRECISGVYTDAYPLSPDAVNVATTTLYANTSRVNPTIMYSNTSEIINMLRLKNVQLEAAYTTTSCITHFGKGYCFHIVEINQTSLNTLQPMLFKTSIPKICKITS
Sequence of hPIV-1 C35 HN (neuraminidase function) (P16071 whole entry): as above

As to `CC(C)C(=O)N[C@H]1[C@H]([C@H](O)[C@H](O)CO)OC(C(=O)O)=C[C@@H]1n1nnc2ccc3[nH]ccc3c21` (single isomer, unassigned) [IE1963-113a], the IC50 (in general, the concentration that inhibits the measured activity by half) was 34.9 µM in experiment [1]; 6.33 µM in experiment [2]; 111 ± 9.29 µM in experiment [3] (setting [9]); 42.6 µM in experiment [4]; 17 ± 0.764 µM in experiment [5]; 36.7 µM in experiment [6].

As to `CC(C)C(=O)N[C@H]1[C@H]([C@H](O)[C@H](O)CO)OC(C(=O)O)=C[C@@H]1n1nnc2c3cc[nH]c3ccc21` (single isomer, unassigned) [IE1963-113b], the concentration for half-maximal inhibition (IC50) in experiment [1] was 17.1 µM; in experiment [2] it was 8.4 µM; in experiment [3] (setting [9]) it was 24.4 ± 3.35 µM; in experiment [4] it was 8.7 µM; in experiment [5], 5.14 ± 0.777 µM; in experiment [6], 3 µM.

As to `O=C(O)C1=C[C@H](n2cc3ccncc3n2)[C@@H](NC(=O)C(F)(F)F)[C@H]([C@H](O)[C@H](O)CO)O1` [JC2001-48, 2,6-Anhydro-3,4,5-trideoxy-5-(2,2,2-trifluoroacetamido)-4-(2H-pyrazolo[3,4-c]pyridin-2-yl)-D-glycero-D-galacto-non-2-enonic Acid], the IC50 in experiment [1] is 29.2 µM; in experiment [2] it was 1.71 µM; in experiment [3] (setting [10]) it was 54.5 ± 16.1 µM; in experiment [4], 8.48 µM; in experiment [7], 4.94 µM; in experiment [8] it was 0.27 µM. The IC50 was 21.5 µM in experiment [5] and 13.1 µM in experiment [6].

Consider `O=C(O)C1=C[C@H](n2cc3ncccc3n2)[C@@H](NC(=O)C(F)(F)F)[C@H]([C@H](O)[C@H](O)CO)O1` [JC2001-49, 2,6-Anhydro-3,4,5-trideoxy-5-(2,2,2-trifluoroacetamido)-4-(2H-pyrazolo[4,3-b]pyridin-2-yl)-D-glycero-D-galacto-non-2-enonic Acid], for which the IC50 is 15.1 µM in experiment [1]; 23.2 µM in experiment [2]; 26.9 µM in experiment [3] (setting [10]); 11.5 µM in experiment [4]; 4.94 µM in experiment [7]; 14.8 µM in experiment [8]. The IC50 in experiment [5] is 8.33 ± 1.24 µM; in experiment [6] it was 13.1 µM.

Turning to `CC(C)C(=O)N[C@H]1[C@H]([C@H](O)[C@H](O)CO)OC(C(=O)O)=C[C@@H]1n1cc2cc(F)sc2c1C#N` [RE1993-40], the IC50 in experiment [1] is 2.71 µM; in experiment [2], 5.41 µM; in experiment [3] (setting [9]), 3.22 ± 0.726 µM; in experiment [4] it was 3.96 µM; in experiment [7], 0.82 µM; in experiment [8], 22.2 µM. The IC50 was 1.14 ± 0.021 µM in experiment [5] and 0.735 ± 0.259 µM in experiment [6].

Consider `O=C(O)C1=C[C@H](n2cc3ccc4cccnc4c3n2)[C@@H](NC(=O)C(F)(F)F)[C@H]([C@H](O)[C@H](O)CO)O1` [RP1967-89, 2,6-Anhydro-3,4,5-trideoxy-5-(2,2,2-trifluoroacetamida)-4-(2H-pyrazolo[4,3-h]quinolin-2-yl)-D-glycero-D-galacto-non-2-enonic Acid], for which the IC50 in experiment [1] is 19.9 µM; in experiment [2], 88.9 µM; in experiment [3] (setting [10]), 9.67 µM; in experiment [4], 5 µM; in experiment [7] it was 4.94 µM; in experiment [8] it was greater than 200 µM. Further, the IC50 in experiment [5] came out at 5.52 ± 0.983 µM; in experiment [6] it was 3 µM.
